# Data published in ChEMBL document CHEMBL4673289, “Design, synthesis and biological evaluation of imidazolopyridone derivatives as novel BRD4 inhibitors” (Bioorg Med Chem, 2021).
# Activity calls are given as the source filed them. The rule behind the calls is not given here.
# Assays:
# [1] = target: T1, Bromodomain-containing protein 4 (Homo sapiens, UniProt O60885); test: Inhibition of BRD4 (unknown origin) at 1 uM preincubated for 15 mins followed by substrate addition and measured after 1 hr by AlphaScreen assay relative to control; settings: time 75.0 min
# BXPC-3 [2] = test: Antiproliferative activity against human BXPC-3 cells assessed as cell growth inhibition at 2 uM measured after 48 to 72 hrs by MTT assay relative to control; type: functional; settings: time 48-72 hrs, read-out: GI
# PANC-1 = test: Antiproliferative activity against human PANC-1 cells assessed as cell growth inhibition at 2 uM measured after 48 to 72 hrs by MTT assay relative to control; type: functional; settings: time 48-72 hrs, read-out: GI
# BXPC-3 [3] = test: Antiproliferative activity against human BXPC-3 cells assessed as cell growth inhibition measured after 48 to 72 hrs by MTT assay; type: functional, cell-based; settings: dose 2-32 µM, time 48-72 hrs
# [4] = target: T1, Bromodomain-containing protein 4; test: Inhibition of BRD4 in human BXPC-3 cells assessed as blocking of BRD4-pTEFB interaction; type: cell-based
# BXPC-3 [5] = test: Induction of apoptosis in human BXPC-3 cells measured after 48 hrs by AnnexinV/propidium iodide staining based flow cytometry; type: functional, cell-based; settings: dose 4-16 µM
# BXPC-3 [6] = test: Induction of apoptosis in human BXPC-3 cells assessed as upregulation of Bax at 4 to 16 uM measured after 48 hrs by Western blot analysis; type: functional, cell-based; settings: dose 4-16 µM
# BXPC-3 [7] = test: Induction of apoptosis in human BXPC-3 cells assessed as downregulation of Bcl-xl at 4 to 16 uM measured after 48 hrs by Western blot analysis; type: functional, cell-based; settings: dose 4-16 µM
# BXPC-3 [8] = test: Induction of apoptosis in human BXPC-3 cells assessed as upregulation of caspase 3 at 4 to 16 uM measured after 48 hrs by Western blot analysis; type: functional, cell-based; settings: dose 4-16 µM
# BXPC-3 [9] = test: Induction of apoptosis in human BXPC-3 cells assessed as activation of caspase 3 at 4 to 16 uM measured after 48 hrs by Western blot analysis; type: functional, cell-based; settings: dose 4-16 µM
# BXPC-3 [10] = test: Induction of apoptosis in human BXPC-3 cells assessed as increase in cleaved PARP expression at 4 to 16 uM measured after 48 hrs by Western blot analysis; type: functional, cell-based; settings: dose 4-16 µM
# Panc02 [11] = test: Antitumor activity against mouse Panc02 allografted in BALB/c mouse assessed as reduction in tumor weight at 50 mg/kg, ip administered every day for 20 days relative to control; type: functional; settings: 480 h, time 20 day, read-out: TGI
# Panc02 [12] = test: Antitumor activity against mouse Panc02 allografted in BALB/c mouse assessed as reduction in tumor weight at 50 mg/kg, ip administered every day for 20 days in combination with gemcitabine at 100 mg/kg relative to control; type: functional; settings: 480 h, time 20 day, read-out: TGI
# Mus musculus = test: Upregulation of caspase 3 in BALB/c mouse allografted with mouse Panc02 cells […] at 50 mg/kg, ip administered every day measured after 20 days by immunohistochemical analysis; type: functional, organism-based; settings: time 20.0 day
smiles,measurement,setting,value
CCS(=O)(=O)Nc1ccc(Oc2ccccc2F)c(-c2cn(C)c(=O)c3cncn23)c1,inhibition,[1],100%
same,inhibition of growth at 2 µM,BXPC-3 [2],38.4%
same,inhibition of growth at 2 µM,PANC-1,16.5%
same,growth inhibition (GI),BXPC-3 [3],Dose-dependent effect
same,inhibition,[4],Active
same,Activity,BXPC-3 [5],Dose-dependent effect
same,Activity,BXPC-3 [6],Active
same,Activity,BXPC-3 [7],Active
same,Activity,BXPC-3 [8],Active
same,Activity,BXPC-3 [9],Active
same,Activity,BXPC-3 [10],Active
same,inhibition in vivo at 50 mg/kg,Panc02 [11],79%
same,inhibition in vivo at 50 mg/kg,Panc02 [12],85%
same,Activity,Mus musculus,Active
